Measurements reported in US6737383B1, “Herbicidal oxadiazolidines” (priority 1999, dated 2004).

Experiments:
surinam grass = assay: Test B pre/postemergence surinam grass; format: in vivo, Brachiaria decumbens
Outline: (§1)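 Herbicidal effect was estimated by eye on a ten-point control scale after plants spent twelve to sixteen days in a greenhouse following soil or foliar treatment. Foliar sprays targeted plants at one to four leaves; all doses were formulated in a non-phytotoxic solvent with surfactant.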

corn = assay: Test B pre/postemergence corn; format: in vivo, Zea mays
Outline: as §1

pigweed = assay: Test B pre/postemergence pigweed; format: in vivo, Amaranthus retroflexus
Outline: as §1

wild oat = assay: Test B pre/postemergence wild oat; format: in vivo, Avena fatua
Outline: as §1

bedstraw = assay: Test B pre/postemergence bedstraw; format: in vivo, Galium aparine
Outline: as §1

soybean = assay: Test B pre/postemergence soybean; format: in vivo, Glycine max
Outline: as §1

crabgrass = assay: Test B pre/postemergence crabgrass; format: in vivo, Digitaria sanguinalis
Outline: as §1

cocklebur = assay: Test B pre/postemergence cocklebur; format: in vivo, Xanthium strumarium
Outline: as §1

sugar beet = assay: Test B pre/postemergence sugar beet; format: in vivo, Beta vulgaris
Outline: as §1

giant foxtail = assay: Test B pre/postemergence giant foxtail; format: in vivo, Setaria faberii
Outline: as §1

duck salad = assay: Test B flood test duck salad; format: in vivo, Heteranthera limosa
Outline: (§2)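 Flood test on plants grown to the 2-leaf stage; treated plants kept in greenhouse twelve to sixteen days, then visually rated against controls on a 0 (no effect) to 10 (complete control) scale.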

morningglory = assay: Test B pre/postemergence morningglory; format: in vivo, Ipomoea hederacea
Outline: as §1

blackgrass = assay: Test B pre/postemergence blackgrass; format: in vivo, Alopecurus myosuroides
Outline: as §1

purple nutsedge = assay: Test B pre/postemergence purple nutsedge; format: in vivo, Cyperus rotundus
Outline: as §1

rice = assay: Test B flood test rice; format: in vivo, Oryza sativa
Outline: as §2

smallflower flatsedge = assay: Test B flood test smallflower flatsedge; format: in vivo, Cyperus difformis
Outline: as §2

[1] = Postemergence, Rate 62 g/ha, scale 0 to 10, 0 is no effect, 10 is complete control
[2] = Postemergence, Rate 250 g/ha, scale 0 to 10, 0 no effect, 10 complete control
[3] = Preemergence, Rate 31 g/ha, visual rating, scale 0 to 10 (0 no effect, 10 complete control)
[4] = Preemergence, Rate 62 g/ha, scale 0 to 10, 0 is no effect, 10 is complete control
[5] = Preemergence, Rate 125 g/ha, scale 0 to 10 (0 no effect, 10 complete control)
[6] = Preemergence, Rate 250 g/ha, scale of 0 to 10 where 0 is no effect and 10 is complete control
[7] = Rate 31 g/ha, Postemergence, scale 0 to 10
[8] = Rate 125 g/ha, Postemergence, scale 0 to 10, 0 no effect, 10 complete control
[9] = Rate 125 g/ha, Postemergence section (flood test species), scale 0 to 10, 0 no effect, 10 complete control
[10] = Rate 500 g/ha, Postemergence section of Table B, 0 to 10 scale (0 no effect, 10 complete control)
[11] = flood test, listed under Postemergence, Rate 250 g/ha, scale 0 to 10, 0 no effect, 10 complete control

With `COc1ccc(-n2c(=O)on(C(=O)N(c3ccc(F)cc3F)C(C)C)c2=O)c(OC)c1` [Compound 32] the “B. signalgrass plant response rating” value (surinam grass; [1]) was 0, the “B. signalgrass plant response rating” value (surinam grass; [2]) was 0 and the “B. signalgrass plant response rating” value (surinam grass; [3]) was 0. The “Plant response rating, B. signalgrass” value (surinam grass; [4]) was 0, the “Plant response rating, B. signalgrass” value (surinam grass; [5]) was 0 and the “Plant response rating, B. signalgrass” value (surinam grass; [6]) was 2. The “B. signalgrass plant response rating” value (surinam grass; [7]) was 0, the “B. signalgrass plant response rating” value (surinam grass; [8]) was 0 and the “Corn plant response rating” value (corn; [1]) was 0. The “Corn plant response rating” value (corn; [2]) was 0, the “Corn plant response rating” value (corn; [3]) was 0 and the “Plant response rating, Corn” value (corn; [4]) was 0. The “Plant response rating, Corn” value (corn; [5]) was 0, the “Plant response rating, Corn” value (corn; [6]) was 0 and the “Corn plant response rating” value (corn; [7]) was 0. The “Corn plant response rating” value (corn; [8]) was 0, the “Redroot pigweed plant response rating” value (pigweed; [1]) was 0 and the “Redroot pigweed plant response rating” value (pigweed; [2]) was 0. The “Redroot pigweed plant response rating” value (pigweed; [3]) was 0, the “Plant response rating, Redroot pigweed” value (pigweed; [4]) was 0 and the “Plant response rating, Redroot pigweed” value (pigweed; [5]) was 0. The “Plant response rating, Redroot pigweed” value (pigweed; [6]) was 0, the “Redroot pigweed plant response rating” value (pigweed; [7]) was 0 and the “Redroot pigweed plant response rating” value (pigweed; [8]) was 0. For the same compound, the “Wild oats plant response rating” value (wild oat; [1]) was 0, the “Wild oats plant response rating” value (wild oat; [2]) was 0 and the “Wild oats plant response rating” value (wild oat; [3]) was 0. The “Plant response rating, Wild oats” value (wild oat; [5]) was 0, the “Plant response rating, Wild oats” value (wild oat; [6]) was 2 and the “Wild oats plant response rating” value (wild oat; [8]) was 0. The “Bedstraw plant response rating” value (bedstraw; [1]) was 0, the “Bedstraw plant response rating” value (bedstraw; [2]) was 0 and the “Bedstraw plant response rating” value (bedstraw; [3]) was 0. For the same compound, the “Plant response rating, Bedstraw” value (bedstraw; [4]) was 0, the “Plant response rating, Bedstraw” value (bedstraw; [5]) was 0 and the “Plant response rating, Bedstraw” value (bedstraw; [6]) was 0. The “Bedstraw plant response rating” value (bedstraw; [7]) was 0, the “Bedstraw plant response rating” value (bedstraw; [8]) was 0 and the “Soybean plant response rating” value (soybean; [1]) was 2. The “Soybean plant response rating” value (soybean; [2]) was 2, the “Soybean plant response rating” value (soybean; [3]) was 0 and the “Plant response rating, Soybean” value (soybean; [4]) was 0. For the same compound, the “Plant response rating, Soybean” value (soybean; [5]) was 0, the “Plant response rating, Soybean” value (soybean; [6]) was 0 and the “Soybean plant response rating” value (soybean; [8]) was 2. The “Crabgrass plant response rating” value (crabgrass; [1]) was 0, the “Crabgrass plant response rating” value (crabgrass; [2]) was 3 and the “Crabgrass plant response rating” value (crabgrass; [3]) was 0. The “Plant response rating, Crabgrass” value (crabgrass; [4]) was 4, the “Plant response rating, Crabgrass” value (crabgrass; [5]) was 6 and the “Plant response rating, Crabgrass” value (crabgrass; [6]) was 9. For the same compound, the “Crabgrass plant response rating” value (crabgrass; [7]) was 0, the “Crabgrass plant response rating” value (crabgrass; [8]) was 2 and the “Cocklebur plant response rating” value (cocklebur; [1]) was 0. For the same compound, the “Cocklebur plant response rating” value (cocklebur; [2]) was 0, the “Cocklebur plant response rating” value (cocklebur; [3]) was 0 and the “Plant response rating, Cocklebur” value (cocklebur; [4]) was 0. The “Plant response rating, Cocklebur” value (cocklebur; [5]) was 0, the “Plant response rating, Cocklebur” value (cocklebur; [6]) was 0 and the “Cocklebur plant response rating” value (cocklebur; [7]) was 0. For the same compound, the “Cocklebur plant response rating” value (cocklebur; [8]) was 0, the “Sugarbeets plant response rating” value (sugar beet; [1]) was 0 and the “Sugarbeets plant response rating” value (sugar beet; [2]) was 0. For the same compound, the “Sugarbeets plant response rating” value (sugar beet; [3]) was 0, the “Plant response rating, Sugarbeets” value (sugar beet; [4]) was 0 and the “Plant response rating, Sugarbeets” value (sugar beet; [5]) was 0. The “Plant response rating, Sugarbeets” value (sugar beet; [6]) was 0, the “Sugarbeets plant response rating” value (sugar beet; [8]) was 0 and the “Giant foxtail plant response rating” value (giant foxtail; [1]) was 0. For the same compound, the “Giant foxtail plant response rating” value (giant foxtail; [2]) was 0, the “Giant foxtail plant response rating” value (giant foxtail; [3]) was 1 and the “Plant response rating, Giant foxtail” value (giant foxtail; [4]) was 4. The “Plant response rating, Giant foxtail” value (giant foxtail; [5]) was 8, the “Plant response rating, Giant foxtail” value (giant foxtail; [6]) was 9 and the “Giant foxtail plant response rating” value (giant foxtail; [7]) was 0. For the same compound, the “Giant foxtail plant response rating” value (giant foxtail; [8]) was 0, the “Ducksalad plant response rating” value (duck salad; [1]) was 0 and the “Ducksalad plant response rating” value (duck salad; [9]) was 0. For the same compound, the “Ducksalad plant response rating” value (duck salad; [10]) was 2, the “Ducksalad plant response rating” value (duck salad; [11]) was 0 and the “Morningglory plant response rating” value (morningglory; [1]) was 6. The “Morningglory plant response rating” value (morningglory; [2]) was 8, the “Morningglory plant response rating” value (morningglory; [3]) was 0 and the “Plant response rating, Morningglory” value (morningglory; [4]) was 0. For the same compound, the “Plant response rating, Morningglory” value (morningglory; [5]) was 0, the “Plant response rating, Morningglory” value (morningglory; [6]) was 2 and the “Morningglory plant response rating” value (morningglory; [7]) was 6. For the same compound, the “Morningglory plant response rating” value (morningglory; [8]) was 7, the “Blackgrass plant response rating” value (blackgrass; [1]) was 0 and the “Blackgrass plant response rating” value (blackgrass; [2]) was 7. For the same compound, the “Blackgrass plant response rating” value (blackgrass; [3]) was 0, the “Plant response rating, Blackgrass” value (blackgrass; [4]) was 1 and the “Plant response rating, Blackgrass” value (blackgrass; [5]) was 2. The “Plant response rating, Blackgrass” value (blackgrass; [6]) was 4, the “Blackgrass plant response rating” value (blackgrass; [7]) was 0 and the “Blackgrass plant response rating” value (blackgrass; [8]) was 0. For the same compound, the “Nutsedge plant response rating” value (purple nutsedge; [1]) was 0, the “Nutsedge plant response rating” value (purple nutsedge; [2]) was 0 and the “Nutsedge plant response rating” value (purple nutsedge; [3]) was 0. For the same compound, the “Plant response rating, Nutsedge” value (purple nutsedge; [4]) was 0, the “Plant response rating, Nutsedge” value (purple nutsedge; [5]) was 0 and the “Plant response rating, Nutsedge” value (purple nutsedge; [6]) was 0. For the same compound, the “Nutsedge plant response rating” value (purple nutsedge; [7]) was 0, the “Nutsedge plant response rating” value (purple nutsedge; [8]) was 0 and the “Rice plant response rating” value (rice; [1]) was 0. For the same compound, the “Rice plant response rating” value (rice; [9]) was 0, the “Rice plant response rating” value (rice; [10]) was 0 and the “Rice plant response rating” value (rice; [11]) was 0. The “S. Flatsedge plant response rating” value (smallflower flatsedge; [1]) was 0, the “S. Flatsedge plant response rating” value (smallflower flatsedge; [9]) was 0 and the “S. Flatsedge plant response rating” value (smallflower flatsedge; [11]) was 2.
